Results: patent publication US20250295762A1, “COMPOSITE BIOACTIVE COMPOSITIONS AND APPLICATIONS THEREOF” (THE UNIVERSITY OF NORTH CAROLINA AT CHAPEL HILL, priority 2022, published 2025)
≈ marks a conversion by molar mass, not a printed value.

System: 3T3 fibroblasts
Experiment: Cell viability by MTT assay in fibroblasts
Format: cell-based
Details: 24 h; for IC50: Fibroblast, read-out: 50% Inhibitory Concentration (IC50)
Text: All cell lines (RAW 264.7 murine macrophages, DC2.4 dendritic cells, and 3T3 fibroblasts; ATCC, Manassas, VA) were maintained according to ATCC guidelines. B3Z T cells were obtained from Dr. Nilabh Shastri (Johns Hopkins) and maintained and used as previously outlined. See, Broaders, K. E.; Cohen, J. A.; Beaudette, T. T.; Bachelder, E. M.; Frechet, J. M., Acetalated dextran is a chemically and biologically tunable material for particulate immunotherapy. Proc Natl Acad Sci USA 2009, 106 (14), 5497-502. Cell viability was determined with an MTT assay, as previously described. See, Chen, N.; Collier, M. A.; Gallovic, M. D.; Collins, G. C.; Sanchez, C. C.; Fernandes, E. Q.; Bachelder, E. M.; Ainslie, K. M., Degradation of acetalated dextran can be broadly tuned based on cyclic acetal coverage and molecular weight. Int J Pharm 2016, 512 (1), 147-157.

Molecule `Cc1ncc[nH]1` [2-methylimidazole] has an IC50 of about 1000 µg/mL (≈ 12.2 mM).

`NCCC(=O)N[C@@H](Cc1cnc[nH]1)C(=O)O` [L-carnosine] showed an IC50 of over 1000 µg/mL.

For `CC(=O)[O-].CC(=O)[O-].[Zn+2]` [zinc acetate dihydrate], the “50% Inhibitory Concentration (IC50)” value was 16.0 ± 1.0 µg/mL.

For `O.O.O.O.O.O.O=[N+]([O-])[O-].O=[N+]([O-])[O-].[Zn+2]` [zinc nitrate hexahydrate], the “50% Inhibitory Concentration (IC50)” value was 25.8 ± 2.1 µg/mL.
